Columns and labels:
[1] = Drug accumulation in female Sprague-Dawley rat at 5 mg/kg, IG measured for 7 days by LC-MS/MS analysis; format: ADME, organism-based; conditions: in vivo, po, 168 h, time 7 day
[2] = Drug metabolism in human plasma by LC-MS/MS analysis; format: ADME, cell-free
[3] = Permeability across basolateral to apical side in human Caco-2 cells at 0.1 to 10 uM incubated for 120 mins by LC-MS/MS analysis; format: ADME, cell-based; conditions: caco-2, 2 h, dose 0.1-10 µM
[4] = Toxicity in Beagle dogs assessed as effect on respiratory system at 5 to 20 mg/kg, po administrated as single dose upto 24 hrs; format: organism-based, Canis lupus familiaris; conditions: dog, in vivo, dose 5-20 mg/kg
[5] = Permeability across basolateral to apical side in human MDCK-MDR1 cells at 0.1 to 10 uM incubated for 120 mins by LC-MS/MS analysis; format: ADME, cell-based, Canis lupus familiaris; conditions: dog, mdck-mdr1, 2 h, dose 0.1-10 µM
[6] = Drug distribution in Sprague-Dawley rat stomach at 5 mg/kg, IG administrated as single dose measured after 0.5 hrs by LC-MS/MS analysis; format: ADME, organism-based; conditions: in vivo, po
[7] = Plasma protein binding in human at 1 uM incubated for 5 hrs in HTD dialysis in the presence of verapamil by LC-MS/MS analysis relative to control; format: ADME, cell-free; conditions: read-out: PPB (converted)
[8] = Induction of CYP1A2 mRNA expression in human primary hepatocyte isolated from RAS donor at 0.1 to 10 uM incubated for 72 hrs by real-time PCR analysis; format: ADME, cell-based; conditions: hepatocytes, dose 0.1-10 µM
LoVo [9] = assay: Antitumor activity against human LoVo cells xenografted in female Balb/c nude mouse assessed as tumor growth inhibition at 40 mg/kg QD, po measured every 3 days for 25 days relative to control; format: functional; conditions: 600 h, time 25 day, read-out: TGI
[10] = Lipophilicity, logP of compound; format: physicochemical; conditions: octanol/water
LoVo [11] = assay: Induction of apoptosis in human LoVo cells assessed as late apoptotic cells at 1 uM incubated for 24 hrs by Annexin-V-FITC-PI staining based flow cytometric analysis (reference value: 13.2 %); format: functional
LoVo [12] = assay: Induction of apoptosis in human LoVo cells assessed as late apoptotic cells at 3 uM incubated for 24 hrs by Annexin-V-FITC-PI staining based flow cytometric analysis (reference value: 13.2 %); format: functional
[13] = Drug distribution in Sprague-Dawley rat brain at 5 mg/kg, IG administrated as single dose measured after 0.5 hrs by LC-MS/MS analysis; format: ADME, organism-based; conditions: po, read-out: Ct
[14] = Dissociation constant, pKa of compound; format: physicochemical
CYP2D6 = CYP2D6 (Homo sapiens, UniProt P10635); assay: Inhibition of recombinant human CYP2D6 assessed as residual activity at 1 uM in the presence of NADPH incubated for 60 mins by LC-MS/MS analysis relative to control; format: ADME; conditions: read-out: Activity
CYP2D6, sequence (P10635 whole entry): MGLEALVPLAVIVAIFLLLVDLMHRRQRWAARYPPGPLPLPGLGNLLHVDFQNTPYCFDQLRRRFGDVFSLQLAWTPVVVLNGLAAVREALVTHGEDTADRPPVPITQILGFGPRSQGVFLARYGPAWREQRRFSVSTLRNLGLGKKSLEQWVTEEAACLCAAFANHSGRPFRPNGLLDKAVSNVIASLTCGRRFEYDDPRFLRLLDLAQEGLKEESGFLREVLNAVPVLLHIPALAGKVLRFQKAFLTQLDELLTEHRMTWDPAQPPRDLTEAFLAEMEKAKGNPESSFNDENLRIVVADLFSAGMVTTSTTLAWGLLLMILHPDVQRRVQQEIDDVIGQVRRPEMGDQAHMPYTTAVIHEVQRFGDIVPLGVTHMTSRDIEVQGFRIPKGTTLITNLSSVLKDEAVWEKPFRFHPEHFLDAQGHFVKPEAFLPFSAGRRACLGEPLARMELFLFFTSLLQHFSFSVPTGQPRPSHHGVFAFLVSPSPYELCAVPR

[15] = molecular target: Serine/threonine-protein kinase mTOR (Homo sapiens, UniProt P42345); assay: Inhibition of mTOR (unknown origin) preincubated for 15 mins and measured after 60 mins by Z-LYTE screening
[16] = Toxicity in female Balb/c nude mouse xenografted with human NCI-H1703 cells assessed as body weight at 40 mg/kg QD, po measured every 3 days for 25 days at 10 to 60 mg/kg QD, po measured every 3 days for 28 days; format: organism-based; conditions: in vivo, 672 h, time 28 day
[17] = Toxicity in Sprague-Dawley rats assessed as effect on central nervous system at 10 to 40 mg/kg, po administrated as single dose upto 24 hrs; format: organism-based; conditions: rat, in vivo, dose 10-40 mg/kg
CYP3A4 = CYP3A4 (Homo sapiens, UniProt P08684); assay: Inhibition of recombinant human CYP3A4 assessed as residual activity at 1 uM in the presence of NADPH incubated for 60 mins by LC-MS/MS analysis relative to control; format: ADME; conditions: read-out: Activity
CYP3A4, sequence (P08684 whole entry): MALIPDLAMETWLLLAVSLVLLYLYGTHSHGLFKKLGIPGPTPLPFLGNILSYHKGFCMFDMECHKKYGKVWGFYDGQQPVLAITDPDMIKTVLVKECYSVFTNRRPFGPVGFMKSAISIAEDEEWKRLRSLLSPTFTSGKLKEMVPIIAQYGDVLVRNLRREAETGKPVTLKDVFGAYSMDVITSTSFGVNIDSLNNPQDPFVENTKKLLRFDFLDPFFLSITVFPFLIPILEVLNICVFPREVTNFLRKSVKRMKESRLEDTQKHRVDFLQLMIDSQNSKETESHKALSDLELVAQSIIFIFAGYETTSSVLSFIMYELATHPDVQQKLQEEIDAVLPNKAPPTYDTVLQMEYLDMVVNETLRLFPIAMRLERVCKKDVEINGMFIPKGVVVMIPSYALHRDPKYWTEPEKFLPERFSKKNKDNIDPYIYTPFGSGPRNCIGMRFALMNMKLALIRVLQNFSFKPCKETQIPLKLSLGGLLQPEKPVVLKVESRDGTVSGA

NCI-H1703 = assay: Antitumor activity against human NCI-H1703 cells xenografted in female Balb/c nude mouse assessed as tumor growth inhibition at 40 mg/kg QD, po administered as 3 days on and 4 days off schedule for 4 weeks relative to control; format: functional; conditions: NCI-H1703, 672 h, time 28 day, read-out: TGI
Cytochrome P450 1A2 = Cytochrome P450 1A2 (Homo sapiens, UniProt P05177); assay: Inhibition of CYP1A2 in human liver microsomes in the presence of NADPH incubated for 60 mins by LC-MS/MS analysis; format: ADME, Microsome
Cytochrome P450 1A2, sequence (P05177 whole entry): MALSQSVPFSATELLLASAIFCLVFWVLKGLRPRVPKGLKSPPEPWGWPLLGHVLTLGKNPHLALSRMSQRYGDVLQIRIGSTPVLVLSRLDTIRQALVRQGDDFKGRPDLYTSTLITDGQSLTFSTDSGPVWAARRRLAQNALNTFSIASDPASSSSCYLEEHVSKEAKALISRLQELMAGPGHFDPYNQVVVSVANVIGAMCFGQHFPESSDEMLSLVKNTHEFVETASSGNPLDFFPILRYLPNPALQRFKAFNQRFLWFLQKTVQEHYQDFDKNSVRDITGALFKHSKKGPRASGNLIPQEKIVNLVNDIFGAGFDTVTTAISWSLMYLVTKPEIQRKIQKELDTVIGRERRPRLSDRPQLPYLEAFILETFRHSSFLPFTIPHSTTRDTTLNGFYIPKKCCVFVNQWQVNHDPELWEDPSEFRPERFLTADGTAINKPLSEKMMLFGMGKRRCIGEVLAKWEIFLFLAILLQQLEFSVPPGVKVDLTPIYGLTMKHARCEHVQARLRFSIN

[18] = Drug metabolism in human liver cells at 2 uM incubated upto 120 mins by LC-MS/MS analysis; format: ADME, cell-based; conditions: 2 h
Cytochrome P450 2C19 = Cytochrome P450 2C19 (Homo sapiens, UniProt P33261); assay: Inhibition of CYP2C19 in human liver microsomes in the presence of NADPH incubated for 60 mins by LC-MS/MS analysis; format: ADME, Microsome
Cytochrome P450 2C19, sequence (P33261 whole entry): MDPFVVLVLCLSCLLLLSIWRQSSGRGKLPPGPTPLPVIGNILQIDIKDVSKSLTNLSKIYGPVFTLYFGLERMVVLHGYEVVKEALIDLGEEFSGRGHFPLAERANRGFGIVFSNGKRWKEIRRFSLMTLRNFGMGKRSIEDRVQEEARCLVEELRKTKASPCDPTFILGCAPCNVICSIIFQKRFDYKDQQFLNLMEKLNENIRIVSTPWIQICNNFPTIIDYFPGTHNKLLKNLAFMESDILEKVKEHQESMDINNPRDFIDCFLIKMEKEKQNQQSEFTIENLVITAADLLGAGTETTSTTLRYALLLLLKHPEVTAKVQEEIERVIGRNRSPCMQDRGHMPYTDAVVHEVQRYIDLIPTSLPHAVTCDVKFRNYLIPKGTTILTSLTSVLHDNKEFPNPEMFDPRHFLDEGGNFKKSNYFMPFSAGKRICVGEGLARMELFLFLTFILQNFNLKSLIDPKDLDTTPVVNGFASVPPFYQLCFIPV

[19] = Drug metabolism in Beagle dogs liver cells at 2 uM incubated upto 120 mins by LC-MS/MS analysis; format: ADME, cell-based, Canis lupus familiaris; conditions: dog, 2 h
[20] = Stability in human plasma assessed as half life by LC-MS/MS analysis; format: ADME, cell-free
[21] = Drug metabolism in CD-1 mouse liver cells at 2 uM incubated upto 120 mins by LC-MS/MS analysis; format: ADME, cell-based; conditions: 2 h
[22] = Plasma protein binding in CD-1 mouse at 1 uM incubated for 5 hrs in HTD dialysis in the presence of verapamil by LC-MS/MS analysis relative to control; format: ADME, cell-free; conditions: read-out: PPB (converted)
[23] = Stability in Sprague-Dawley rat plasma assessed as half life by LC-MS/MS analysis; format: ADME, cell-free
Cytochrome P450 3A4 = Cytochrome P450 3A4 (Homo sapiens, UniProt P08684); assay: Inhibition of CYP3A4 in human liver microsomes using midazolam as substrate and in presence of NADPH incubated for 60 mins by LC-MS/MS analysis; format: ADME, Microsome
Cytochrome P450 3A4, sequence (P08684 whole entry): as the sequence (P08684 whole entry) above

[24] = Induction of CYP2B6 mRNA expression in human primary hepatocyte isolated from RAS donor at 0.1 to 10 uM incubated for 72 hrs by real-time PCR analysis; format: ADME, cell-based; conditions: hepatocytes, dose 0.1-10 µM
[25] = Inhibition of DNA-PK (unknown origin) preincubated for 15 mins and measured after 60 mins by Z-LYTE screening; parameters: species or system Homo sapiens
LoVo [26] = assay: Induction of apoptosis in human LoVo cells assessed as early apoptotic cells at 1 uM incubated for 24 hrs by Annexin-V-FITC-PI staining based flow cytometric analysis (reference value: 13.7 %); format: functional
CYP2C19 = CYP2C19 (Homo sapiens, UniProt P33261); assay: Inhibition of recombinant human CYP2C19 assessed as residual activity at 1 uM in the presence of NADPH incubated for 60 mins by LC-MS/MS analysis relative to control; format: ADME; conditions: read-out: Activity
CYP2C19, sequence (P33261 whole entry): as the sequence (P33261 whole entry) above

JeKo-1 = assay: Antitumor activity against human JeKo-1 cells xenografted in female CB17 SCID mouse assessed as tumor growth inhibition at 30 mg/kg BID, po measured every 2 days for 24 days relative to control; format: functional; conditions: JeKo-1, 576 h, time 24 day, read-out: TGI
CYP2B6 = CYP2B6 (Homo sapiens, UniProt P20813); assay: Inhibition of recombinant human CYP2B6 assessed as residual activity at 1 uM in the presence of NADPH incubated for 60 mins by LC-MS/MS analysis relative to control; format: ADME; conditions: read-out: Activity
CYP2B6, sequence (P20813 whole entry): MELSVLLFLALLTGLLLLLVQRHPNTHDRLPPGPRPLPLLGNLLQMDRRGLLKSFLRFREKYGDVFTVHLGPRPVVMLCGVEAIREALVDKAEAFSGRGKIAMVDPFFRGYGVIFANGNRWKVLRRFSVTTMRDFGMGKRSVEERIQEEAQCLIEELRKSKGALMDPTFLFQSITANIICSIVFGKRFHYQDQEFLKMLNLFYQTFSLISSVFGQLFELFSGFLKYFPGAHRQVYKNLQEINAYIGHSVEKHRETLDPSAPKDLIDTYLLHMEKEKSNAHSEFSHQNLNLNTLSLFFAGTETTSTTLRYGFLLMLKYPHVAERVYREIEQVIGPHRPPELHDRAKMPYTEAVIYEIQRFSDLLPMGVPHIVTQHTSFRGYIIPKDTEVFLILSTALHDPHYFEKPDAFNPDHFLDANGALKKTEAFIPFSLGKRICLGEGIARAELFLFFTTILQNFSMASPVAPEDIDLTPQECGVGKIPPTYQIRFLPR

Cc1nn(-c2cccnc2)c(C)c1-c1cc(N2CC3CCC(C2)O3)nc2c(-c3ccn[nH]3)cnn12.O=C(O)/C=C/C(=O)O
Drug uptake [1]: Active
Drug metabolism [2]: metabolite_notdetected
permeability [3]: Permeable
Activity [4]: Non-toxic
permeability [5]: Permeable
Drug uptake [6]: Active
fraction unbound at 5 h, 1 µM [7]: 0.075
Activity [8]: Not_active
inhibition in vivo at 40 mg/kg (LoVo [9]): 42.6%
logP [10]: 0.7
Activity (LoVo [11]): 10%
Activity (LoVo [12]): 19.8%
concentration at 0.5 h [13]: 4.47 ng/g
pKa [14]: 4.25
activity at 1 h, 1 µM (CYP2D6): 101%
IC50 [15]: 1.82 µM
Activity [16]: Toxic
Activity [17]: Non-toxic
activity at 1 h, 1 µM (CYP3A4): 73.3%
inhibition in vivo at 40 mg/kg (NCI-H1703): 36.2%
IC50 (Cytochrome P450 1A2): > 100 µM
Drug metabolism [18]: metabolite_detected
IC50 (Cytochrome P450 2C19): 54.2 µM
Drug metabolism [19]: metabolite_detected
half-life [20]: > 2 h
Drug metabolism [21]: metabolite_detected
fraction unbound at 5 h, 1 µM [22]: 0.361
half-life [23]: > 2 h
IC50 (Cytochrome P450 3A4): 48.4 µM
Activity [24]: Active
IC50 [25]: 0.24 µM
Activity (LoVo [26]): 18.2%
activity at 1 h, 1 µM (CYP2C19): 109%
inhibition in vivo at 30 mg/kg (JeKo-1): 96.4%
activity at 1 h, 1 µM (CYP2B6): 94.1%
